Results on three molecules are retold here after patent US11939398B2, “Modified peptides for use in treating neurodegenerative disorders” (Neuro-Bio Ltd, priority 2016, dated 2024).

Entries after “also recorded” stand apart in the source; their conditions may differ. Where a SMILES comes first, the peptide text is derived from it. [ ]: non-standard residue; d: D form. Bpa = N[C@@H](Cc1ccc(C(=O)c2ccccc2)cc1)C(=O)O; Phe(4-NH2) = Nc1ccc(C[C@H](N)C(=O)O)cc1; hArg = N=C(N)NCCCC[C@H](N)C(=O)O

Data set [1] has as its system PC12 cells. Briefly: AChE activity assay (Ellman reagent) in PC12 cells treated with T30. The class given is cell-based. The following applies: combined with T30 (1 μM). The method, then: AChE activity was measured using the Ellman reagent that measures the presence of thiol groups as a result of AChE activity. In the case of the G4 experiment, AChE (G4) activity was tested alone and also together with either NBP14 or Tri peptides. PC12 cells were plated the day before the experiment as for the cell viability assay. Cells were treated with T30 (1 μM) alone or combined with NBP14 or Tri peptide (0.5 μM). After treatment, supernatant (perfusate) of each treatment was collected and 25 μL from each condition were added to a new flat bottomed 96 well plate followed by the addition of 175 μl of Ellman reagent (Solution A: KH2PO4 139 mM and K2HPO4 79.66 mM, pH 7.0; solution B (substrate): Acetylthiocholine Iodide 11.5 mM; Solution C (Reagent): 5,5′-dithiobis(2-nitrobenzoic acid) 8 mM and NaHCO3 15 mM). The Ellman reagent was prepared as a mixture of the 3 solutions in a ratio 33(A):3(B):4(C). Absorbance measurements were taken for an interval of 60 minutes across experiments at 405 nm in a Vmax plate reader (Molecular devices, Wokingham, UK).
In each of the different cell techniques, the statistics analysis was performed with the average of the percentage values of 3 or more experiments. […]
For orientation: DTNB colorimetry detects thiols as they appear.

The test system of data set [2] is PC12 cells. Briefly: Calcium fluorometry (Fluo-8, PNU282987-induced calcium increase) in PC12 cells. Format: cell-based. The following applies: in conjunction with T30, PC12 cells. The method, then:
PC12 cells were plated in 200 μl of Dulbecco's Modified Eagle's medium (DMEM) plus 2 mM of L-glutamine medium the day before the experiment in 96 well plates. On the day of the experiment, the Fluo-8 solution (Abcam) was prepared as described by the provider by adding 20 μl of Fluo-8 in the assay buffer that contains 9 ml of Hank's Balanced Salt Solution (HBSS) and 1 ml of pluronic F127 Plus. Subsequently, 100 μl of growth medium was removed and 100 μl of Fluo-8 solution were added. Treatments with T30 in conjunction with NBP14 or Tri peptides were added and incubated for 30 minutes in the incubator and 30 minutes room temperature. After 1 h, the plate was placed in the fluorescence plate reader (Fluostar, Optima, BMG Labtech, Ortenberg, Germany). Before reading the fluorescence, PNU282987 1 μM, an alpha7 specific agonist of the nicotinic receptors, was prepared and placed in the Fluostar injector. For each well, the reading was formed by a basal fluorescence reading followed by PNU282987 injection that induced an increase of calcium via nicotinic receptors.
In each of the different cell techniques, the statistics analysis was performed with the average of the percentage values of 3 or more experiments. Comparisons between multiple treatment groups and the same control were performed by one-way analysis of variance (ANOVA) and Tukey's post-hoc tests using GraphPAD Instat (GraphPAD software, San Diego, California). Statistical significance was taken at a p value<0.05.

Data set [3] concerns rat basal forebrain slices. Briefly: voltage-sensitive dye imaging (VSDI) on brain slices, Example 5. The class given is cell-based. How it is done:
Male Wistar rats (14 days old) were anaesthetised using isoflurane (˜15 ml, 100% w/w). Isoflurane was applied to the cotton bed at the bottom of an anaesthetic chamber (glass box 20×15×15 cm) where rats were then placed for approximately 45 s until complete anaesthesia was reached. The hind paw of each anaesthetised rat was pinched to check for the appropriate depth of anaesthesia. Upon confirmation of anaesthesia, rats were quickly decapitated, with the brain being quickly removed and immersed in ice cold oxygenated ‘slicing’ artificial cerebrospinal fluid (aCSF in mmol: 120 NaCl, 5 KCL, 20 NaHCO3, 2.4 CaCl2 2 MgSO4, 1.2 KH2PO4, 10 glucose, 6.7 HEPES salt and 3.3 HEPES acid; pH=7.1). Coronal slices (400 μm thick) were then taken from a block of brain containing the basal forebrain, namely the MS-dBB complex (between +9.20 and +9.48 mm Interaural and +0.48 and +0.2 mm Bregma, FIG. 4A) and the somatosensory barrel field cortex (SiBF, between +8.08 and +7.20 mm Interaural and −0.92 mm and −1.80 mm Bregma) (Paxinos and Watson, 1998) using a Vibratome (Leica VTi000S).
Slices were then transferred to a bubbler pot containing oxygenated aCSF at room temperature (recording aCSF in mmol: 124 NaCl, 5 KCL, 20 NaHCO3, 2.4 CaCl2 2 MgSO4, 1.3 KH2PO4, 10 glucose; pH=7.4) which was identical to that used in VSDI (voltage sensitive dye imaging) recording. Slices were then left for approximately 1-1.5 hours before preparing them for VSD staining.
Slices were placed in a dark, high humidity chamber filled with aCSF bubbled with 95% O2, 5% CO2. Once there, the dye solution (4% 0.2 mM styryl dye pyridinium 4-[2-[6-(dibutylamino)-2-napthalenyl]-ethenyl]-1-(3-sulfopropyl)hydroxide (Di-4-NEPPS), Invitrogen, Paisley, UK in 48% aCSF, 48% foetal bovine serum, 3.5% DMSO and 0.4% cremophore EL) (Tominaga et al., 2000) was applied to the slices for 20-25 minutes before being transferred back to a bubbler pot containing oxygenated aCSF kept at room temperature for 30 minutes.
When starting the VSDI recordings, slices were placed in the recording bath on a small piece of filter paper to allow the flow of oxygenated aCSF on the underside of the slice and in order to keep it alive. The slice was then weighed down by a home-made plastic grid that was placed on top of the slice. […] For the acquisition of VSD data, 2 dimensional images, equivalent to 88×60 pixels, were recorded using the MiCamo2 High Resolution camera (Brain Vision, Japan) with BV_Analyze imaging software. […] Light was generated using an Osram halogen xenophot 64634 HLX EFR Display/Optic lamp and was filtered to emit green (530±10 nm) light using a MHF-G150LR (Moritex Corporation) coupled to the MiCamo2 High resolution imaging system and filtered the emitted fluorescence through a >590 nm high pass filter. […]

A short description of data set [4]: stability / degradation in rat blood. The following applies: for stability in blood / degradants detected: rat blood diluted with PBS; for degradants detected: UHPLC-TOF MS. Format: in vitro ADME. How it is done: (§1) Test compounds were spiked at 10 μg/ml into either PBS or blood (Male Wistar rat or Human) diluted with PBS, and a series of samples taken according to the following scheme:
(§2) Procaine, a compound known to be unstable in blood, was included as a positive control (ran with 5-fold diluted blood only). The sampling procedure was to add an aliquot to ice-cold acetonitrile, centrifuge, and store the supernatant on dry ice until analysis. Analysis by UHPLC-TOF mass spectrometry using electrospray ionisation was performed on the same day as the incubations were performed.

A short description of data set [5]: stability / degradation in human blood. Format: in vitro ADME. The method, then: as §1, §2
Data set [6] deals with rat basal forebrain slices. The experiment in a line: voltage-sensitive dye imaging (VSDI) on brain slices, Example 7. Format: cell-based. How it is done: Brain slices were prepared as in Example 5.
Slices were placed in a dark, high humidity chamber filled with aCSF bubbling with 95% O2e5% CO2. Once there, the dye solution (4% 0.2 mM styryl dye pyridinium 4-[2-[6-(dibutylamino)-2-aphthalenyl]-ethenyl]-1-(3-sulfopropyl)hydroxide (Di-4-ANEPPS, Invitrogen, Paisley, UK) (Tominaga et al., 2000) in aCSF 48%, fetal bovine serum 48%, DMSO 3.5% and cremophore EL 0.4%) was applied to the slices for 20-25 min before being transferred to an aCSF bubbler pot (room temperature, 22 C+/−1.5 C) for 1 h to wash off excess dye and recover.
When starting VSD recordings, slices were placed in the recording bath on a small piece of filter paper to keep slice alive and was weighed down appropriately using a home-made plastic grid placed atop the slice. The perfusing bath solution was heated to 30+/−1 C by a stage heater. A concentric bipolar stimulating electrode (FHC, Maine, US) was placed in the ventral diagonal band of the basal forebrain with stimulation being set at 30 V. For acquiring of VSD data, 16-bit images were recorded with 1 ms resolution with a digital camera (Brain Vision MiCAM Ultima R3-V20 Master) with Ultima 2004/08 imaging software (Brain Vision) coupled to Spike 2 V6.0 (CED Ltd, Cambridge, UK) which was used to trigger stimulations with respect to appropriate ISI. […]

Where [7] appears, read: human blood diluted with PBS, 10 μg/ml, up to 60 min.

In the case of `CSCC[C@@H]1NC(=O)[C@H](Cc2ccc(O)cc2)NC(=O)[C@H](CO)NC(=O)[C@H](CO)NC(=O)[C@H](Cc2c[nH]c3ccccc23)NC(=O)[C@H](CCCNC(=N)N)NC(=O)[C@H](Cc2c[nH]cn2)NC(=O)[C@H](Cc2ccccc2)NC(=O)[C@H](CCC(=O)O)NC(=O)[C@H](C)NC(=O)[C@H](CCCCN)NC(=O)[C@H](Cc2c[nH]c3ccccc23)NC(=O)[C@H](Cc2c[nH]cn2)NC(=O)[C@H](C(C)C)NC1=O` [NBP14, reference compound] (cyclo(AEFHRWSSYMVHWK)), the “protection against T30-induced AChE activity” value in the data set on PC12 cells [1] was “protects against these toxic effects”. Besides, the “protection against T30-induced calcium influx” value with PC12 cells [2] is given as “protects against these toxic effects”. Further, in data set [3] (4 μM co-perfused with T30 (2 uM)), the “blocking of T30-induced deviations from baseline (VSDI)” value was “totally block the T30-induced effects”. The “change in magnitude (summed fluorescence) of evoked responses, compound alone” value in data set [3] (4 μM in perfusate, no T30) was “small, non-significant alterations”. For the same molecule, the stability in blood result is on record as “good stability” in data set [4] (10 μg/ml, up to 60 min) and “good stability” in data set [5] (setting [7]). The degradants detected result in data set [4] was “no degradants were detected”; in data set [5] (human blood diluted with PBS, UHPLC-TOF MS), “no degradants were detected”.

On to `CCN(CC)CCOC(=O)c1ccc(N)cc1` [Procaine, reference compound], for which the turnover in data set [4] (5-fold diluted rat blood, 10 μg/ml, up to 60 min) is listed as 60%; in data set [5] (5-fold diluted human blood, 10 μg/ml, up to 60 min), 100%.

On to `CC(=O)N[C@@H](Cc1ccc(C(=O)c2ccccc2)cc1)C(=O)N[C@@H](CCCCNC(=N)N)C(=O)N[C@@H](Cc1ccc(N)cc1)C(N)=O` [Tri04, 4-((S)-2-((S)-2-((S)-2-acetamido-3-(4-benzoylphenyl)propanamido)-6-((amino(iminio)methyl)amino)hexanamido)-3-amino-3-oxopropyl)benzenaminium] (Ac-[Bpa]-[hArg]-[Phe(4-NH2)]-NH2), for which, in the data set on PC12 cells [2], the “protection against T30-induced calcium influx” value was “protects the toxic effects of T30 by reducing calcium influx”. Also, the “effect on T30-induced inhibition of basal forebrain activity” value is on record as “significant effect on basal forebrain population activity; also recorded: reversal of the inhibitory effect of T30; also recorded: increase in network activity; also recorded: protective role of Tri04 over T30” in data set [6] (2 μM Tri04 co-perfused with 2 μM T30, n=29) and “totally block the T30-induced effects; also recorded: recapitulates results previously seen with the application of 4 μM NBP14; also recorded: significant effect reversing T30 activity” in data set [6] (4 μM Tri04 co-perfused with 2 μM T30, n=20). In addition, the stability in blood result is reported as “better stability than TRI-02” in data set [4] (10 μg/ml, up to 60 min) and “better stability than TRI-02” in data set [5] (setting [7]). Also, the degradants detected result in data set [4] is “some degradants were still detected”.
